Assay results published in patent publication US4874856A, “3-(substituted)propenyl-7-(aminothiazolylacetamido) ceph-3-em-4-carboxylic acids and esters thereof” (Bristol-Myers Company, priority 1987, dated 1989).
In brackets after ≈: the same amount, converted by molar mass. Where two headings read alike, the source gives them in different places.

What was measured:
[1] = system: Penicillin(PC)sensitive S. aureus; assay: In vitro MIC, two-fold serial agar dilution in Mueller-Hinton agar, Gp-Ia strains; type: cell-based; settings: Staphylococcus aureus; GpIa, 5 strains; read-out: Geometric mean of MIC, GpIa
Description: (§1) The in vitro antibacterial activity of the parent cephalosporanic acids of Formula I wherein R^4 is hydrogen is shown in Table 1 in terms of geometric mean of the Minimum Inhibitory Concentrations (MIC's) which were determined by the two-fold serial agar dilution method in Mueller-Hinton agar against 25 strains of test organisms in five groups.
Gp-Ia: Penicillin(PC)sensitive S. aureus

PCresistant S. aureus = assay: In vitro MIC, two-fold serial agar dilution in Mueller-Hinton agar, GpIb strains; type: cell-based; settings: Staphylococcus aureus, 5 strains, read-out: Geometric mean of MIC, GpIb
Description: as §1
GpIb: PCresistant S. aureus

[2] = system: Cephalothin(CET)sensitive E. coli (2 strains), K. pneumoniae (1) an P. mirabilis (2); assay: In vitro MIC, two-fold serial agar dilution in Mueller-Hinton agar, GnIa strains; type: cell-based; settings: 5 strains, read-out: Geometric mean of MIC, GnIa
Description: as §1
GnIa: Cephalothin(CET)sensitive E. coli (2 strains), K. pneumoniae (1) an […]

[3] = system: CETresistant E. coli (3) and K. pneumoniae (2); assay: In vitro MIC, two-fold serial agar dilution in Mueller-Hinton agar, GnIb strains; type: cell-based; settings: Escherichia coli, 5 strains, read-out: Geometric mean of MIC, GnIb
Description: as §1
GnIb: CETresistant E. coli (3) and K. pneumoniae (2)

[4] = system: M. morcanii (1), E. cloacae (2) and S. marcescens (2); assay: In vitro MIC, two-fold serial agar dilution in Mueller-Hinton agar, GnII strains; type: cell-based; settings: Enterobacter cloacae, read-out: Geometric mean of MIC, GnII
Description: as §1
GnII: M. morcanii (1), E. cloacae (2) and S. marcescens (2)

[5] = Mouse blood levels after oral administration (Table 2); type: in vivo
S. aureus Smith = assay: Evaluation in vivo (mouse), oral PD50 against S. aureus Smith; settings: Staphylococcus aureus
From the text: (§2) Tables 4 and 5 show the in vivo activity of pro-drug esters 88-92 including the bioavailability thereof as reflected by blood levels.

E. coli Juhl = assay: Evaluation in vivo (mouse), oral PD50 against E. coli Juhl; settings: Escherichia coli
From the text: as §2

[6] = Bioavailability in mouse as reflected by blood levels (Table 5); type: in vivo; settings: oral, Table 5 (definition given as drawing 18)
From the text: as §2

[7] = Evaluation in vivo (mouse), blood concentration (Table 4); settings: po, treated orally, single 100 mg/kg dose
Description: as §2
*treated orally, single 100 mg/kg. dose

[8] = mouse blood, 20 mg/kg, read-out: AUC
[9] = mouse blood, 20 mg/kg, read-out: T 1/2 (converted)
[10] = mouse blood, 100 mg/kg, read-out: AUC
[11] = mouse blood, 100 mg/kg, read-out: Cmax
[12] = mouse blood, 100 mg/kg, read-out: T 1/2 (converted)

With `N[C@@H](C(=O)N[C@@H]1C(=O)N2C(C(=O)O)=C(Cl)CS[C@H]12)c1ccccc1` [Cefaclor, reference compound] the MIC [1] was 0.7 µg/mL (≈ 1.9 µM), the MIC (PCresistant S. aureus) was 4.7 µg/mL (≈ 12.8 µM) and the MIC [2] was 0.92 µg/mL (≈ 2.5 µM). It also gave an MIC [3] of 11 µg/mL (≈ 29.9 µM), an MIC [4] greater than 100 µg/mL and an AUC ([5]; mouse, in vivo, 20 mg/kg) of 8900 ng·h/mL. The half-life ([5]; mouse, in vivo, 20 mg/kg) was 0.91 h, the AUC ([5]; mouse, in vivo, 100 mg/kg) was 35000 ng·h/mL and the half-life ([5]; mouse, in vivo, 100 mg/kg) was 1.2 h.

Work on `CC1=C(C(=O)O)N2C(=O)[C@@H](NC(=O)[C@H](N)c3ccc(O)cc3)[C@H]2SC1` [Cefadroxil, reference compound] yielded an MIC [1] of 1.4 µg/mL (≈ 3.85 µM), an MIC (PCresistant S. aureus) of 3.6 µg/mL (≈ 9.91 µM) and an MIC [2] of 8.3 µg/mL (≈ 22.8 µM). For the same compound, the MIC [3] was 17 µg/mL (≈ 46.8 µM), the MIC [4] was greater than 100 µg/mL and the AUC [5, 8] was 16000 ng·h/mL. The half-life [5, 9] was 1.4 h, the AUC [5, 10] was 69000 ng·h/mL and the Cmax [5, 11] was 57000 ng/mL. It also gave a half-life [5, 12] of 1.6 h.

Work on `C=CC1=C(C(=O)O)N2C(=O)[C@@H](NC(=O)/C(=N\OCC(=O)O)c3csc(N)n3)[C@H]2SC1` [Cefixime, cefixime] yielded an MIC [1] of 4.7 µg/mL (≈ 10.4 µM), an MIC (PCresistant S. aureus) of 12.5 µg/mL (≈ 27.6 µM) and an MIC [2] of 0.016 µg/mL (≈ 0.0353 µM). The MIC [3] was 3.1 µg/mL (≈ 6.84 µM), the MIC [4] was 3.2 µg/mL (≈ 7.06 µM) and the AUC [5, 8] was 25000 ng·h/mL. It also gave a Cmax ([5]; mouse blood, 20 mg/kg, read-out: Cmax) of 10000 ng/mL, a half-life [5, 9] of 1.5 h and an AUC [5, 10] of 75000 ng·h/mL. The Cmax [5, 11] was 28000 ng/mL and the half-life [5, 12] was 1.6 h.

Compound `C/C=C\C1=C(C(=O)OC(C)OC(C)=O)N2C(=O)[C@@H](NC(=O)/C(=N\O)c3csc(N)n3)[C@H]2SC1` (stereo partly drawn) [Compound 30, 1-acetoxyethyl 7β-[(Z)-2-(2-aminothiazol-4-yl)-2-(hydroxyimino)acetamido]-3-[(Z)-prop-1-en-1-yl]-3-cephem-4-carboxylate] has an AUC ([5]; mouse, in vivo, 20 mg/kg) of 16000 ng·h/mL, a Cmax ([5]; mouse, in vivo, 20 mg/kg) of 9900 ng/mL and a half-life ([5]; mouse, in vivo, 20 mg/kg) of 1 h. For the same compound, the AUC ([5]; mouse, in vivo, 100 mg/kg) was 61000 ng·h/mL, the Cmax ([5]; mouse, in vivo, 100 mg/kg) was 36000 ng/mL and the half-life ([5]; mouse, in vivo, 100 mg/kg) was 1.3 h. For the same compound, the ED50 (S. aureus Smith; Table 5) was 2 mg/kg, the ED50 (E. coli Juhl; Table 5) was 1.1 mg/kg and the bioavailability [6] was 76%.

With `C/C=C/C1=C(C(=O)O)N2C(=O)[C@@H](NC(=O)/C(=N\O)c3csc(N)n3)[C@H]2SC1` [Compound 33, 7β-[(Z)-2-(2-aminothiazol-4-yl)-2-(hydroxyimino)acetamido]-3-[(E)-prop-1-en-1-yl]-3-cephem-4-carboxylic acid] the MIC [1] was 0.23 µg/mL (≈ 0.562 µM), the MIC (PCresistant S. aureus) was 0.61 µg/mL (≈ 1.49 µM) and the MIC [2] was 0.46 µg/mL (≈ 1.12 µM). For the same compound, the MIC [3] was 1.4 µg/mL (≈ 3.42 µM) and the MIC [4] was 22 µg/mL (≈ 53.7 µM).

In the case of `CC(=O)OC/C=C\C1=C(C(=O)O)N2C(=O)[C@@H](NC(=O)/C(=N\O)c3csc(N)n3)[C@H]2SC1` [Compound 37, 7β-[(Z)-2-(2-aminothiazol-4-yl)-2-(hydroxyimino)acetamido]-3-[(Z)-3-acetoxyprop-1-en-1-yl]-3-cephem-4-carboxylic acid], the MIC [1] is reported as 0.17 µg/mL (≈ 0.364 µM), the MIC (PCresistant S. aureus) is reported as 0.4 µg/mL (≈ 0.856 µM) and the MIC [2] is reported as 0.025 µg/mL (≈ 0.0535 µM). It also gave an MIC [3] of 0.1 µg/mL (≈ 0.214 µM) and an MIC [4] of 1.1 µg/mL (≈ 2.35 µM).

Work on `C/C=C\C1=C(C(=O)O)N2C(=O)[C@@H](NC(=O)/C(=N\OC(C)=O)c3csc(N)n3)[C@H]2SC1` [Compound 53, 7β-[(Z)-2-(2-aminothiazol-4-yl)-2-(acetoxyimino)acetamido]-3-[(Z)-prop-1-en-1-yl]-3-cephem-4-carboxylic acid] yielded an MIC [1] of 0.17 µg/mL (≈ 0.377 µM), an MIC (PCresistant S. aureus) of 0.4 µg/mL (≈ 0.886 µM) and an MIC [2] of 0.057 µg/mL (≈ 0.126 µM). For the same compound, the MIC [3] was 0.26 µg/mL (≈ 0.576 µM) and the MIC [4] was 3.6 µg/mL (≈ 7.97 µM).

Compound `C/C=C\C1=C(C(=O)OC(C)OC(C)=O)N2C(=O)[C@@H](NC(=O)/C(=N\OC(C)=O)c3csc(N)n3)[C@H]2SC1` (stereo partly drawn) [Compound 55, 1-acetoxyethyl 7β-[(Z)-2-(2-aminothiazol-4-yl)-2-(acetoxyimino)acetamido]-3-[(Z)-prop-1-en-1-yl]-3-cephem-4-carboxylate] has an AUC ([5]; mouse, in vivo, 20 mg/kg) of 9400 ng·h/mL, a Cmax ([5]; mouse, in vivo, 20 mg/kg) of 7600 ng/mL and a half-life ([5]; mouse, in vivo, 20 mg/kg) of 0.8 h. It also gave an AUC ([5]; mouse, in vivo, 100 mg/kg) of 40000 ng·h/mL, a Cmax ([5]; mouse, in vivo, 100 mg/kg) of 27000 ng/mL and a half-life ([5]; mouse, in vivo, 100 mg/kg) of 0.8 h.

Compound `C/C=C\C1=C(C(=O)OCc2oc(=O)oc2C)N2C(=O)[C@@H](NC(=O)/C(=N\O)c3csc(N)n3)[C@H]2SC1` [Compound 88, (5-methyl-2-oxo-1,3-dioxolen-4-yl)methyl 7β-[(Z)-2-(2-aminothiazol-4-yl)-2-(hydroxyimino)-acetamido]-3-[(Z)-prop-1-en-1-yl]-3-cephem-4-carboxylate] has an ED50 (S. aureus Smith; Table 4) of 1.1 mg/kg, an ED50 (E. coli Juhl; Table 4) of 2.7 mg/kg and an AUC [7] of 44000 ng·h/mL. For the same compound, the Cmax [7] was 16000 ng/mL.

`C/C=C\C1=C(C(=O)OC(C)OC(=O)OCC)N2C(=O)[C@@H](NC(=O)/C(=N\O)c3csc(N)n3)[C@H]2SC1` (stereo partly drawn) [Compound 89, 1-(ethoxycarbonyloxy)ethyl 7β-[(Z)-2-(2-aminothiazol-4-yl)-2-(hydroxyimino)-acetamido]-3-[(Z)-prop-1-en-1-yl]-3-cephem-4-carboxylate] showed an ED50 (S. aureus Smith; Table 4) of 0.77 mg/kg, an ED50 (E. coli Juhl; Table 4) of 0.67 mg/kg and an AUC [7] of 74000 ng·h/mL. It also gave a Cmax [7] of 32000 ng/mL.

`C/C=C\C1=C(C(=O)OC(C)OC(=O)OC2CCCCC2)N2C(=O)C(NC(=O)/C(=N\O)c3csc(N)n3)[C@H]2SC1` (some centres unmarked) [Compound 90, 1-(cyclohexyloxycarbonyloxy)ethyl 7-[(Z)-2-(2-aminothiazol-4-yl)-2-(hydroxyimino)acetamido]-3-[(Z)-1-propenyl]-3-cephem-4-carboxylate] gave an ED50 (S. aureus Smith; Table 5) of 3.2 mg/kg, an ED50 (E. coli Juhl; Table 5) of 1.5 mg/kg and a bioavailability [6] of 78%.

For `C/C=C\C1=C(C(=O)OC(C)OC(=O)C(C)(C)C)N2C(=O)C(NC(=O)/C(=N\O)c3csc(N)n3)[C@H]2SC1` (some centres unmarked) [Compound 91, 1-(pivaloyloxy)ethyl 7-[(Z)-2-(2-aminothiazol-4-yl)-2-(hydroxyimino)acetamido]-3-[(Z)-1-propenyl]-3-cephem-4-carboxylate], the ED50 (S. aureus Smith; Table 5) was 2 mg/kg, the ED50 (E. coli Juhl; Table 5) was 3.5 mg/kg and the bioavailability [6] was 60%.

Compound `C/C=C\C1=C(C(=O)OC(C)OC(=O)CC2CCCCC2)N2C(=O)C(NC(=O)/C(=N\O)c3csc(N)n3)[C@H]2SC1` (some centres unmarked) [Compound 92, 1-(cyclohexylacetoxy)ethyl 7-[(Z)-2-(2-aminothiazol-4-yl)-2-(hydroxyimino)acetamido]-3-[(Z)-1-propenyl]-3-cephem-4-carboxylate] has an ED50 (S. aureus Smith; Table 5) of 2.9 mg/kg, an ED50 (E. coli Juhl; Table 5) of 1.4 mg/kg and a bioavailability [6] of 87%.
